Test results: patent US5831026A, “Process for purifying factor VIII” (Pharmacia & Upjohn AB, priority 1994, dated 1998)

Columns and labels:
[1] = system: metal-dependent proteases; assay: Protease assay with resorufin-labeled casein in harvest solution (conditioned medium); format: biochemical, Chinese Hamster; conditions: for Mean absorbance corrected: blank subtracted
Protocol: The method chosen was a protease assay with casein which was resorufin-labeled. By treatment with proteases, resorufin-labeled peptides are released from the casein. The concentration of these resorufin-labeled peptides in the supernatant is a measure of the proteolytic activity present. The test sample was incubated at 37° C. for a period of time which was dependent upon the sample at issue. The absorption wave-length chosen was 574 run throughout the tests. […]
Preincubation of the conditioned medium with or without EDTA was conducted at 37° C. for 2 h. After the addition of substrate, further incubation was carried out for 17 h. The pH in the incubation mixture was 7.5.
Absorbance corrected, refers to the absorption after subtraction of the blank value.
Conditioned medium (containing human serum albumin) was clarified and imidazole subsequently added in an amount ranging from 3.6 mM up to 360 mM.
Conditioned medium (containing human serum albumin) was clarified and histidine subsequently added in an amount ranging from 0.14 mM to 13.6 mM.

factor VIII = assay: Activity of factor VIII after addition of complexing agent to eluted solution from SP Sepharose FF, COATEST chromogenic assay; format: biochemical; conditions: Example 8; for Factor VIII activity (%): 0 h without additive = 100
Protocol: Tests without EDTA present were carried out for comparison.
(§1) A conditioned medium (containing human serum albumin) from a different harvest than the previous Examples, was clarified and buffered with NH4 Ac. […] After elution, various amounts of EDTA were added to the resulting solution. Tests without EDTA present were carried out for comparison. The procoagulant activity of factor VIII was determined after storage at ambient temperature for up to 246 hours, in accordance to the procedure described in Example 5.
as §1, with “28” for “246”
A conditioned medium (containing human serum albumin) from a different harvest than the previous Examples, was clarified and buffered with NH4 Ac. The resulting solution was loaded onto a column containing SP SEPHAROSE® FF. This cation-exchange chromatography step was performed at 10° C. […] After elution, EDTA or 1,10-Phenanthroline were added to the resulting solution.

[2] = 5 mM Phenanthroline, incubation 4.5 h ambient
[3] = 5 mM Phenanthroline, incubation 7.5 h ambient
[4] = 5 mM Phenanthroline, incubation 24 h ambient
[5] = 11 mM Phenanthroline, incubation 4.5 h ambient
[6] = 11 mM Phenanthroline, incubation 7.5 h ambient
[7] = 11 mM Phenanthroline, incubation 24 h ambient

## N[C@@H](Cc1c[nH]cn1)C(=O)O [Histidine, L-histidine]
[1]; 0.14 mM histidine
  Mean absorbance: 2561
  Protease activity (%): 79%
  Mean absorbance corrected: 1591
[1]; 0.7 mM histidine
  Mean absorbance: 2857
  Protease activity (%): 94%
  Mean absorbance corrected: 1887
[1]; 1.4 mM histidine
  Mean absorbance: 3153
  Protease activity (%): 108%
  Mean absorbance corrected: 2183
[1]; 7 mM histidine
  Mean absorbance: 1495
  Protease activity (%): 26%
  Mean absorbance corrected: 525
[1]; 13.6 mM histidine
  Mean absorbance: 1684
  Protease activity (%): 35%
  Mean absorbance corrected: 714

## c1c[nH]cn1 [imidazole]
[1]; 3.6 mM imidazole
  Mean absorbance: 2891
  Protease activity (%): 95%
  Mean absorbance corrected: 1921
[1]; 18 mM imidazole
  Mean absorbance: 2985
  Protease activity (%): 100%
  Mean absorbance corrected: 2015
[1]; 36 mM imidazole
  Mean absorbance: 3190
  Protease activity (%): 110%
  Mean absorbance corrected: 2220
[1]; 180 mM imidazole
  Mean absorbance: 1258
  Protease activity (%): 14%
  Mean absorbance corrected: 288
[1]; 360 mM imidazole
  Mean absorbance: 1143
  Protease activity (%): 9%
  Mean absorbance corrected: 173

## c1cnc2c(c1)ccc1cccnc12 [Phenanthroline, 1,10-Phenanthroline]
Factor VIII; [2]
  Factor VIII activity (IU/ml): 750 IU/ml
  Factor VIII activity (%): 84%
Factor VIII; [3]
  Factor VIII activity (IU/ml): 964 IU/ml
  Factor VIII activity (%): 109%
Factor VIII; [4]
  Factor VIII activity (IU/ml): 933 IU/ml
  Factor VIII activity (%): 105%
Factor VIII; [5]
  Factor VIII activity (IU/ml): 869 IU/ml
  Factor VIII activity (%): 98%
Factor VIII; [6]
  Factor VIII activity (IU/ml): 996 IU/ml
  Factor VIII activity (%): 112%
Factor VIII; [7]
  Factor VIII activity (IU/ml): 916 IU/ml
  Factor VIII activity (%): 103%
